Results on 1 molecule are retold here after ChEMBL document CHEMBL1770059, “Identification of chemicals to inhibit the kinase activity of leucine-rich repeat kinase 2 (LRRK2), a Parkinson's disease-associated protein” (Bioorg Med Chem Lett, 2011).

Data set [1] has as its target Mitogen-activated protein kinase kinase kinase 9 (Homo sapiens) (UniProt P80192). Nature of the data set: Inhibition of MLK1 assessed as residual activity of enzyme at 10 uM.
Data set [2] is described as follows: Neurotoxicity in rat primary cortical neurons assessed as cell survival at 10 uM after 24 hrs by MTT assay. The conditions noted are these: read-out: Activity. It counts as toxicity, cell-based, Cerebral cortex neuron. In general terms: Tetrazolium dyes change colour on reduction, which living cells bring about.
For data set [3], the target named is Glycogen synthase kinase-3 beta (Homo sapiens) (UniProt P49841). Nature of the data set: Inhibition of GSK3-beta assessed as residual activity of enzyme at 10 uM.
Sequence of Glycogen synthase kinase-3 beta (Homo sapiens) (P49841 whole entry, looked up): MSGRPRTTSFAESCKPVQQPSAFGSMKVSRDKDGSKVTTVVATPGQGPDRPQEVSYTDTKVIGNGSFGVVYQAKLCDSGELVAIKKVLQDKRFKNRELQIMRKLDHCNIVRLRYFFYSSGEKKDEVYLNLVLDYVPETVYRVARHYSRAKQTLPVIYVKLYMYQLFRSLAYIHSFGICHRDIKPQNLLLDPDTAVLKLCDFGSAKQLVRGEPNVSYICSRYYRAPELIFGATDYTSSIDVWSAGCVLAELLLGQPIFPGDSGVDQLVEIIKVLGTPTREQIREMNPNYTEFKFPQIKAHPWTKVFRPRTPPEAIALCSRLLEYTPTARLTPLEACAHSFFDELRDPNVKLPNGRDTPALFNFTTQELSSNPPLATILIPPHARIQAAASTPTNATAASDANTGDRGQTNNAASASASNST
The target of data set [4] is Leucine-rich repeat serine/threonine-protein kinase 2 (Homo sapiens) (UniProt Q5S007). Nature of the data set: Inhibition of wild type LRRK2 expressed in mouse SN4741 cells assessed as reduction in hydrogen peroxide-induced neurotoxicity at 10 uM by measuring cell survival after 48 hrs by crystal violet assay relative to control. It counts as cell-based.
Sequence of Leucine-rich repeat serine/threonine-protein kinase 2 (Homo sapiens) (Q5S007 whole entry): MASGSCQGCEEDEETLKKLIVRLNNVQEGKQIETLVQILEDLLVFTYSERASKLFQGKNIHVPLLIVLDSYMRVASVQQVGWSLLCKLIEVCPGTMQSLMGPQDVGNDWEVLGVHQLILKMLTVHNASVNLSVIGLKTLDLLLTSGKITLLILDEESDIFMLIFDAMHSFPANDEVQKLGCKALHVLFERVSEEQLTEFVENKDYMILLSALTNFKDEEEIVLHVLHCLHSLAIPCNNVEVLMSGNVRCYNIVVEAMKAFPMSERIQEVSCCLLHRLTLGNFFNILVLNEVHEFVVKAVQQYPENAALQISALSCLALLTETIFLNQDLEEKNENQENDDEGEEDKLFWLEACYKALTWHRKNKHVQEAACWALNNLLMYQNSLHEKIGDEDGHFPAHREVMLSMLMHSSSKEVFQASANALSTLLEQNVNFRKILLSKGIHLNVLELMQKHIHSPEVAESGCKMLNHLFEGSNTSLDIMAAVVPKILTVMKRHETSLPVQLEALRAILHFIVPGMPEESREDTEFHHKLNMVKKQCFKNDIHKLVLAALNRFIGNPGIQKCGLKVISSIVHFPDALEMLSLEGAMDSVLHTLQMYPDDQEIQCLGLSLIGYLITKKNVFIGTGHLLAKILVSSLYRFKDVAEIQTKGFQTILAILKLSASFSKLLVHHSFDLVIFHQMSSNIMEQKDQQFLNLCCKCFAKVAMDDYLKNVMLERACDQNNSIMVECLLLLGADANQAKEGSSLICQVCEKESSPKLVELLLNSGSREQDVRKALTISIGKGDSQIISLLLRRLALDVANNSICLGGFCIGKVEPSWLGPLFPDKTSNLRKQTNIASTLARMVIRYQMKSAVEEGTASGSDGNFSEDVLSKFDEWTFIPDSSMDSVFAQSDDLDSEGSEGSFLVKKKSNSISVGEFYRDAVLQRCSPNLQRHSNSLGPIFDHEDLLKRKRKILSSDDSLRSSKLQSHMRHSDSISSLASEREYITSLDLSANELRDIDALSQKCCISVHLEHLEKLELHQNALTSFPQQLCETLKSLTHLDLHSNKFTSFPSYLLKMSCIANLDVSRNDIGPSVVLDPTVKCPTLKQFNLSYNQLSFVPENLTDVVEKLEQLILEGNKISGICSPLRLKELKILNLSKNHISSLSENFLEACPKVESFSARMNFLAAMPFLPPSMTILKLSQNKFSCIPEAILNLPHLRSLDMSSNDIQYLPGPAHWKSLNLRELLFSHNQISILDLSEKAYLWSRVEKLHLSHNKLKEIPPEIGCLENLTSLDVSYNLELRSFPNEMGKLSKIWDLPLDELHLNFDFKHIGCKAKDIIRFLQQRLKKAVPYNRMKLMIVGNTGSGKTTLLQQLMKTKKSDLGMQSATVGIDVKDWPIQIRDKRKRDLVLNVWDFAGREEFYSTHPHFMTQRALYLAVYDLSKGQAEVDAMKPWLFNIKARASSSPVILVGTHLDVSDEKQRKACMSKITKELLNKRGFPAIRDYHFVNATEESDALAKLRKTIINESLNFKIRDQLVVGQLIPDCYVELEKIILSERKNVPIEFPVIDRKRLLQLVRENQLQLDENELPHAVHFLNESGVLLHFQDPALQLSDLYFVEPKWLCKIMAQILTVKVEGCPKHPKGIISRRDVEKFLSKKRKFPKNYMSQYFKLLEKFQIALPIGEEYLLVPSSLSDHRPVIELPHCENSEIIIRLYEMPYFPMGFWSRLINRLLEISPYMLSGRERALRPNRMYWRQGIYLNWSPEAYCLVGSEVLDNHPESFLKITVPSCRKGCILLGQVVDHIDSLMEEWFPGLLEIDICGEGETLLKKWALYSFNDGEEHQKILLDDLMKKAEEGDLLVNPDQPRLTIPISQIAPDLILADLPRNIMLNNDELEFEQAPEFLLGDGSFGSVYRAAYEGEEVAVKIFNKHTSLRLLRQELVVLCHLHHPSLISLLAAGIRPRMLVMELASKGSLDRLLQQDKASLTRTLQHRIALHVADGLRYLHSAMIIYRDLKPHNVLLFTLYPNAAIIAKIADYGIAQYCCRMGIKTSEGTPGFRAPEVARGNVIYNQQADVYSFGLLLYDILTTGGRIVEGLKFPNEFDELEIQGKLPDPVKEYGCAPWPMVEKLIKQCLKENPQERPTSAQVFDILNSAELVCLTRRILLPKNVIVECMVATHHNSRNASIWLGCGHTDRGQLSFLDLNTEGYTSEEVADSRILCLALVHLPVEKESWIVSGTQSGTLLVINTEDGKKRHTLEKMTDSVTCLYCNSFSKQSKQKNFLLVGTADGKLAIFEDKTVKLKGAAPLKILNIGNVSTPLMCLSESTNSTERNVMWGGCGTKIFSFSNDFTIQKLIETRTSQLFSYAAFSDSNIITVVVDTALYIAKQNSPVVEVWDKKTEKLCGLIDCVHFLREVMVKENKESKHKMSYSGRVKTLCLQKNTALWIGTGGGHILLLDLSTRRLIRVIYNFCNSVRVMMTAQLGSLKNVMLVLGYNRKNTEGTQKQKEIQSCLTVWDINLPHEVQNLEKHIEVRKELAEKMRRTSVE

Sequence of Mitogen-activated protein kinase kinase kinase 9 (Homo sapiens) (P80192 whole entry, looked up): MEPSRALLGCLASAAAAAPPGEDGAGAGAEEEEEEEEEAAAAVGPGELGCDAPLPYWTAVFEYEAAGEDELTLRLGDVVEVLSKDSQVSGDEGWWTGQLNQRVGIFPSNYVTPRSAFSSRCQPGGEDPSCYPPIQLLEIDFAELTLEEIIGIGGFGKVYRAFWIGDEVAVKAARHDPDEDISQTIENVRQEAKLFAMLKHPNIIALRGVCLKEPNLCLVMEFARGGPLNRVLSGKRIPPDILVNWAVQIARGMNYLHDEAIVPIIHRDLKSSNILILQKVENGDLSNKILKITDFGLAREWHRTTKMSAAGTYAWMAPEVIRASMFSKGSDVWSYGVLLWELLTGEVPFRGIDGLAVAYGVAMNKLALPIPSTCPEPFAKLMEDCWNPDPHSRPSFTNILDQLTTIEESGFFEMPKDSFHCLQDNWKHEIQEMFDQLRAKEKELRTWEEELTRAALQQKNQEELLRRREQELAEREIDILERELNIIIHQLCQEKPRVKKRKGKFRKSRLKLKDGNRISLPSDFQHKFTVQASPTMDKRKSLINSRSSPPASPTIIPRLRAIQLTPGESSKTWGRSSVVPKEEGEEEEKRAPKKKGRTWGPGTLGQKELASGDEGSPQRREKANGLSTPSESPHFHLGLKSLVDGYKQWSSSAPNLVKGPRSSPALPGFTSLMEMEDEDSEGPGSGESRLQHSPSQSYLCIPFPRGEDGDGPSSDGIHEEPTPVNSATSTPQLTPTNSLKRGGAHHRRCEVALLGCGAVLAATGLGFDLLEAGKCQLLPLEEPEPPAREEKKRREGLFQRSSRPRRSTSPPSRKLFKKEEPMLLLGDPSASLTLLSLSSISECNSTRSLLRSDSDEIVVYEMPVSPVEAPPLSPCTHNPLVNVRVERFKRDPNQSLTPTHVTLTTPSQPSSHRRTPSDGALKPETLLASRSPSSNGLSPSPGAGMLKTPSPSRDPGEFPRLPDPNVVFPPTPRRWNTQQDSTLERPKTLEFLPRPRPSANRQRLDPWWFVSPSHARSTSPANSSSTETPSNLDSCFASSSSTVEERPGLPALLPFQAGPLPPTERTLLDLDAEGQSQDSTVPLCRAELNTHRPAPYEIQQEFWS

Turning to `Cc1cc(N/N=C/c2ccncc2)nc2ccccc12`, the Activity in data set [1] was found to be 20%; in data set [3], 99%; in data set [4] it was 50%. Moreover, the viability at 24 h, 10 µM in data set [2] came to 85%.
